Where two headings read alike, the source gives them in different places. Starred links: 1 amine or outer side, 2 acyl side, 3 side chain; linkers in the order of their positions; H or OH if unused. Positions of bridges follow the written chain, without caps; N, C: chain ends. Residues, ends and D or L forms follow the SMILES beside them. *: point of attachment. C18 diacid = O=C(O)CCCCCCCCCCCCCCCCC(=O)*; γGlu = O=C(O)[C@H](CCC(=O)[*:2])N[*:1]; AEEA = NCCOCCOCC(=O)O
Assay: PK of CNP compounds after i.v. and s.c. administration to rats
Settings: male, Sprague Dawley, rat, in vivo
Method: In order to assess the i.v. and s.c. PK/PD profile of CNP compounds of the present invention, formulations of CNP compounds were administered to rats, blood samples taken and exposure and cGMP response measured.
Quantitative plasma analysis of CNP-compounds: Plasma concentrations of CNP compounds were assayed by plasma protein precipitation and analysed by turboflow liquid chromatography mass spectrometry (TF-LC-MS). Calibrators were prepared by spiking either blank rat or minipig plasma with the relevant CNP compound in the range from 0.5 to 2000 nM. Calibrators, plasma blanks or study samples were prepared for TF-LC-MS by protein precipitation by adding three or four volumes of either ethanol or methanol containing 20 nM of internal standard to one volume of sample. For some compounds, formic acid was added to the precipitation reagent (the final concentration was 1% v/v). After the addition of the precipitation reagent, the mixture was centrifuged at 6200 rpm at 4° C. for 30 minutes. After centrifugation, one volume of supernatant was mixed with two volumes of water (with 1% v/v formic acid). The mixture was analysed by TF-LC-MS using a Cyclone turboflow column (0.5×50 mm, ThermoFisher Scientific) and either a XBridge Protein BEH C4 3.5 μm 300 Åor a XBridge Protein BEH C18 3.5 μm 130 Åanalytical column (both were 50×2.1 mm and obtained from Waters). […] The mass spectrometer was operated in positive ionisation mode. A TSQ Altis mass spectrometer (ThermoFisher Scientific) was used as detector in selected reaction monitoring mode (specific transition were optimised for each CNP compound). Linear calibration curves (weighed 1/×2) were used for calculating the concentration in the plasma samples. Quality control samples were included. The deviation between nominal and calculated concentration in the calibrators and quality control samples were below 15%.
Animals and dosing: Groups of 4-6 rats (male, Sprague Dawley, 350 g at arrival, Janvier, France) per compound and route of administration were dosed with a CNP compound formulated either in A) 8 mM sodium phosphate, 250 mM glycerol, 0.007% polysorbate 20, pH 7.4 or B) 5 mM sodium acetate, 250 mM glycerol, 0.007% polysorbate 20, pH 4.0 depending on the respective compound. S.c. dose was 300 nmol/kg, at a concentration of […] resulting in a dosing volume of 0.3 mL/kg, whereas i.v. dose was 100 nmol/kg, at a concentration of […] resulting in a dosing volume of 1 mL/kg.
Sampling: Sublingual blood samples of 250 uL were collected from unanaesthetised rats in EDTA-coated vials (Microvette 600K3E ref #15.1673.100 Sarstedt) at baseline (-1 h before dosing) as well as 5 min (only i.v. dosed groups), 2 h, 6 h, 24 h, 48 h and 72 h (only for exposure analysis) post-dosing. The blood samples were quickly stored on ice and centrifuged (4° C., 8000 RPM, 5 min) within 10 min of collection. Plasma samples of 50 μL were transferred to each micronic tube for either exposure or cGMP analysis, kept on dry ice and stored in a freezer (−20° C.). Rats had access to food (Altromin) and tap water ad libitum.
Analysis: PK parameters were calculated by non-compartment analysis (NCA) using software Phoenix WinNonlin (ver. 8.1 or later, Certara) for each animal. Clearance (Cl) was calculated as: Dose/AUCinf (linear up, log down). […] Bioavailability was calculated as dose normalized AUC's: (AUC(sc)/Dose(sc))/(AUC(iv)/Dose(iv)). Values in the table are means from individual animals (n=4-6 individual animals). The subsequent plots for cGMP plasma concentration versus time are (Y-axis) mean cGMP concentration (n=4-6 individual animals) after IV dosing and (X-axis) nominal plasma sampling time.
Plasma cGMP are reported as the mean.

[1] = iv, i.v., about 100 nmol/kg, read-out: Cl (L/hr/kg), i.v. administration (converted)
[2] = iv, i.v., about 100 nmol/kg, read-out: T½ (hr), i.v. administration (converted)

Row | Compound | clearance (iv, 100 nmol/kg) | half-life (iv, 100 nmol/kg) | bioavailability (sc, 300 nmol/kg) | half-life (sc, 300 nmol/kg) | clearance [1] | half-life [2] | bioavailability (sc, s.c. bioavailability, about 300 nmol/kg, read-out: F (%), s.c. administration) | half-life (sc, s.c., about 300 nmol/kg, read-out: T½ (hr), s.c. administration (converted))
1 | CC[C@H](C)[C@@H]1NC(=O)[C@H](CCCNC(=N)N)NC(=O)[C@H](CCC(=O)O)NC(=O)[C@H](CC(C)C)NC(=O)[C@H](CCCCN)NC(=O)[C@H](CC(C)C)NC(=O)CNC(=O)[C@H](Cc2ccccc2)NC(=O)[C@@H](NC(=O)CNC(=O)[C@H](CCCCN)NC(=O)[C@H](CO)NC(=O)[C@H](CC(C)C)NC(=O)CNC(=O)[C@H](CCCCN)NC(=O)[C@H](CCCCN)NC(=O)[C@H](CCC(N)=O)NC(=O)[C@H](C)NC(=O)CNC(=O)[C@H](CCCCN)NC(=O)[C@H](Cc2ccc(O)cc2)NC(=O)[C@H](CCCCN)NC(=O)[C@H](CCCNC(=N)N)NC(=O)[C@H](C)NC(=O)COCCOCCNC(=O)COCCOCCNC(=O)CC[C@H](NC(=O)CCCCCCCCCCCCCCCCC(=O)O)C(=O)O)CSSC[C@@H](C(=O)O)NC(=O)CNC(=O)[C@H](CC(C)C)NC(=O)CNC(=O)[C@H](CO)NC(=O)[C@H](CC(C)C)NC(=O)[C@H](CO)NC(=O)CNC1=O [compound 0776] ({C18 diacid-γGlu-AEEA-AEEA}-ARKYKGAQKKGLSKGCFGLKLERIGSLSGLGC-OH; disulfide 16-32) | 0.00613 L/h/kg | 10.7 h | 7.35% | 5.63 h | – | – | – | –
2 | CC[C@H](C)[C@@H]1NC(=O)[C@H](CCCNC(=N)N)NC(=O)[C@H](CC(=O)O)NC(=O)[C@H](CC(C)C)NC(=O)[C@@H]2CCCN2C(=O)[C@H](CC(C)C)NC(=O)CNC(=O)[C@H](Cc2ccccc2)NC(=O)[C@@H](NC(=O)CNC(=O)[C@H](CCCCN)NC(=O)[C@H](CO)NC(=O)[C@H](CC(C)C)NC(=O)CNC(=O)[C@H](CCCCN)NC(=O)[C@H](CCCCN)NC(=O)[C@H](CCC(N)=O)NC(=O)[C@H](C)NC(=O)CNC(=O)[C@H](CCC(=O)O)NC(=O)[C@H](Cc2ccc(O)cc2)NC(=O)COCCOCCNC(=O)COCCOCCNC(=O)CC[C@H](NC(=O)CCCCCCCCCCCCCCCCC(=O)O)C(=O)O)CSSC[C@@H](C(=O)O)NC(=O)CNC(=O)[C@H](CC(C)C)NC(=O)CNC(=O)[C@H](CO)NC(=O)[C@H](CC(C)C)NC(=O)[C@H](CO)NC(=O)CNC1=O [compound 1225] ({C18 diacid-γGlu-AEEA-AEEA}-YEGAQKKGLSKGCFGLPLDRIGSLSGLGC-OH; disulfide 13-29) | – | – | – | – | 0.0103 L/h/kg | 5.03 h | 61.2% | 5.1 h
3 | CC[C@H](C)[C@@H]1NC(=O)[C@H](CCCNC(=N)N)NC(=O)[C@H](CC(=O)O)NC(=O)[C@H](CC(C)C)NC(=O)[C@@H]2CCCN2C(=O)[C@H](CC(C)C)NC(=O)CNC(=O)[C@H](Cc2ccccc2)NC(=O)[C@@H](NC(=O)CNC(=O)[C@H](CO)NC(=O)[C@H](CO)NC(=O)[C@H](CC(C)C)NC(=O)CNC(=O)[C@H](CCCCN)NC(=O)[C@H](CCCCN)NC(=O)[C@H](CCC(N)=O)NC(=O)[C@H](C)NC(=O)CNC(=O)[C@H](CCC(=O)O)NC(=O)[C@H](Cc2ccc(O)cc2)NC(=O)COCCOCCNC(=O)COCCOCCNC(=O)CC[C@H](NC(=O)CCCCCCCCCCCCCCCCC(=O)O)C(=O)O)CSSC[C@@H](C(=O)O)NC(=O)CNC(=O)[C@H](CC(C)C)NC(=O)CNC(=O)[C@H](CO)NC(=O)[C@H](CC(C)C)NC(=O)[C@H](CO)NC(=O)CNC1=O [compound 1227] ({C18 diacid-γGlu-AEEA-AEEA}-YEGAQKKGLSSGCFGLPLDRIGSLSGLGC-OH; disulfide 13-29) | – | – | – | – | 0.0168 L/h/kg | 3.56 h | – | –

From patent US20240209028A1, “CNP COMPOUNDS” (priority 2022, published 2024)
